The text below walks through data of publication PMC3944532, “Mode of Action of Diterpene and Characterization of Related Metabolites from the Soft Coral, Xenia elongata” (Marine Drugs, 2014).

Read-outs that look alike come from different tables or passages of the source.

The subject of one data set is W2 cells. As to the kind of experiment: Apoptosis induction assay (MTT viability), apoptosis competent W2 cells. The class given is cell-based, mouse. The conditions noted are these: for optimal concentration for apoptosis induction: MTT, 0 to 48 h, apoptosis induction = at least 20% death of W2 cells and 10% or higher growth of D3 cells; for cell death in W2 cells: apoptosis competent W2. On the procedure:
In order to assess the pro-apoptotic activities of these compounds as a marker for their potential anticancer efficacy, methanol soluble fractions of Xenia extracts were tested for apoptosis induction in an MTT assay using the apoptosis competent W2 and apoptosis resistant D3 cells, as described in our previous work. […] To quantify apoptosis induction, viability was determined using an MTT assay. Measurements were taken at time 0 and 48 h after addition of compounds in different concentrations. Viability was calculated as the difference between time 0 (addition of compound) and 48 h. Apoptosis induction was defined as at least 20% death of W2 cells and a 10% or higher growth of D3 cells by MTT assay. The optimal concentration of the compounds for apoptosis induction was determined based on the dose response of the two cells lines by MTT assay. […] Treatment of W2 and D3 cells with 0.1 µM staurosporine, a protein kinase inhibitor and potent inducer of apoptosis, was included as a positive control for apoptosis induction and for comparison. Thus, the diterpenes we have isolated and characterized effectively and specifically activate apoptosis in immortalized mammalian epithelial cells.
Apoptosis induction in the presence of compounds (2, 3) was carried out in the following manner. W2 (apoptosis competent) and D3 (apoptosis defective) cells were plated in 96- and 6-well plates and incubated for 24 h, after which they were evenly spread at about 50% confluency. At this time, compounds dissolved in DMSO and diluted in growth medium (DMEM) were added to the cells at various concentrations. DMSO concentration was kept at 0.5% in all wells. Plates were incubated for 24, 48 and 72 h. Cell viability was determined using a modification of the MTT assay, where the reduction of yellow tertazolium salt (MTT—[…]) to purple formazan indicates mitochondrial activity, and thus cell viability. Cells were incubated with 0.5 mg/mL MTT for 3 h. Supernatant was aspirated and DMSO was added to dissolve the formazan crystals. After 30 min incubation at 37 °C, with shaking, absorbance was read at 570 nm on a Spectra MAX 250 (Molecular Devices) plate reader. Differential growth from time 0 to 48 h was calculated. Starurosporine, an apoptosis inducer, and DMSO were used as positive and negative controls, respectively.

The test system of the next data set is D3 cells. As to the kind of experiment: Apoptosis induction assay (MTT viability), apoptosis resistant D3 cells deficient in Bak and Bax. Format: cell-based, mouse. On the procedure: In order to assess the pro-apoptotic activities of these compounds as a marker for their potential anticancer efficacy, methanol soluble fractions of Xenia extracts were tested for apoptosis induction in an MTT assay using the apoptosis competent W2 and apoptosis resistant D3 cells, as described in our previous work. […] To quantify apoptosis induction, viability was determined using an MTT assay. Measurements were taken at time 0 and 48 h after addition of compounds in different concentrations. Viability was calculated as the difference between time 0 (addition of compound) and 48 h. Apoptosis induction was defined as at least 20% death of W2 cells and a 10% or higher growth of D3 cells by MTT assay. The optimal concentration of the compounds for apoptosis induction was determined based on the dose response of the two cells lines by MTT assay. […]
Apoptosis induction in the presence of compounds (2, 3) was carried out in the following manner. […] Cell viability was determined using a modification of the MTT assay, where the reduction of yellow tertazolium salt (MTT—[…]) to purple formazan indicates mitochondrial activity, and thus cell viability. […] After 30 min incubation at 37 °C, with shaking, absorbance was read at 570 nm on a Spectra MAX 250 (Molecular Devices) plate reader. Differential growth from time 0 to 48 h was calculated. […]

The target in a further data set is HDAC1 (Homo sapiens, UniProt Q13547). As to the kind of experiment: HDAC inhibition assay, class I, fluorogenic peptide RHKK(Ac)AMC. Format: biochemical. The conditions noted are these: up to 50 µM.
HDAC1, sequence (Q13547 whole entry): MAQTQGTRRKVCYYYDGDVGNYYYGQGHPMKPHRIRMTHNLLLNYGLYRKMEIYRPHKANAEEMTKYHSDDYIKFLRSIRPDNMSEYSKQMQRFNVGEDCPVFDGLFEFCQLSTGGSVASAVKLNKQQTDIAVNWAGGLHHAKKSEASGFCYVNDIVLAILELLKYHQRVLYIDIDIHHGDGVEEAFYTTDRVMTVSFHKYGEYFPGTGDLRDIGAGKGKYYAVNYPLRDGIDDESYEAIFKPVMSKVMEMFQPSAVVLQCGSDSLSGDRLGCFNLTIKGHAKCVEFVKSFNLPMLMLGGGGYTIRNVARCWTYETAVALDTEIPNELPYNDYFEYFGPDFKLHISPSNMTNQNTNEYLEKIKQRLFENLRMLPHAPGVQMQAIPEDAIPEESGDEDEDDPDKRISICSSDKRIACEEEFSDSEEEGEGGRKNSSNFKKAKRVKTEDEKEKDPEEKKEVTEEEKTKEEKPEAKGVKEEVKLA
The next data set has as its target HDAC2 (Homo sapiens, UniProt Q92769). The description is as above. The class given is biochemical. The note with it: up to 50 µM.
The target of another data set is HDAC3 (Homo sapiens, UniProt O15379). Described as above. Format: biochemical. The note with it: up to 50 µM.
HDAC3, sequence (O15379 whole entry): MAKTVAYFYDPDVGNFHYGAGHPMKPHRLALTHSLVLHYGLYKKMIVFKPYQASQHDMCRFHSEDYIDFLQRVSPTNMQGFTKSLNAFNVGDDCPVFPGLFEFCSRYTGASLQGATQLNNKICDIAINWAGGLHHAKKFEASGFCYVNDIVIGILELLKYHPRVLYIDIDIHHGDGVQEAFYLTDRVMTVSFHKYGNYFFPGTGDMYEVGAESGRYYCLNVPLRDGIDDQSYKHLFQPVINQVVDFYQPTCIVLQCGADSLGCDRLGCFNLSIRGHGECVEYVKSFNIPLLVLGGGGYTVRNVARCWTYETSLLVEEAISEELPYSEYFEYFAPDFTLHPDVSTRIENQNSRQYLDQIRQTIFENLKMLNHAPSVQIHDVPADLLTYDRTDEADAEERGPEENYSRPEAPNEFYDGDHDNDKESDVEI
HDAC3, sequence (Q9Y618 395-489 partner limits assumed): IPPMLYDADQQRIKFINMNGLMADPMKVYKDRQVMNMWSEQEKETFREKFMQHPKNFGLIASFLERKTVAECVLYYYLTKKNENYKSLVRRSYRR
The target of a further data set is T1, HDAC8 (Homo sapiens, UniProt Q9BY41).
T1 sequence (Q9BY41 1-377): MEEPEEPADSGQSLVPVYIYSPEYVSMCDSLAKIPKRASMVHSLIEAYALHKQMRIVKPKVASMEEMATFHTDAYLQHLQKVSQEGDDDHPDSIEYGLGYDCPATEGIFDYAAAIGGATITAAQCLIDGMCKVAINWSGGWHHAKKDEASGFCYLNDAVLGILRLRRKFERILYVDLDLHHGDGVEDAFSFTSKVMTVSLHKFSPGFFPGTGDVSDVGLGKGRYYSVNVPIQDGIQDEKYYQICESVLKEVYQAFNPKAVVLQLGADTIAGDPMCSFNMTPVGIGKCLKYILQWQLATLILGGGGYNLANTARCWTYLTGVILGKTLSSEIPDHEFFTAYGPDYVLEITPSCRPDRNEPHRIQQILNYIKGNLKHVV
As to the kind of experiment: HDAC inhibition assay, class I, fluorogenic peptide RHK(Ac)K(Ac)AMC. Format: biochemical. The conditions noted are these: up to 50 µM.

The target in the next data set is T2, HDAC6 (Homo sapiens, UniProt Q9UBN7).
T2 sequence (Q9UBN7 1-1215): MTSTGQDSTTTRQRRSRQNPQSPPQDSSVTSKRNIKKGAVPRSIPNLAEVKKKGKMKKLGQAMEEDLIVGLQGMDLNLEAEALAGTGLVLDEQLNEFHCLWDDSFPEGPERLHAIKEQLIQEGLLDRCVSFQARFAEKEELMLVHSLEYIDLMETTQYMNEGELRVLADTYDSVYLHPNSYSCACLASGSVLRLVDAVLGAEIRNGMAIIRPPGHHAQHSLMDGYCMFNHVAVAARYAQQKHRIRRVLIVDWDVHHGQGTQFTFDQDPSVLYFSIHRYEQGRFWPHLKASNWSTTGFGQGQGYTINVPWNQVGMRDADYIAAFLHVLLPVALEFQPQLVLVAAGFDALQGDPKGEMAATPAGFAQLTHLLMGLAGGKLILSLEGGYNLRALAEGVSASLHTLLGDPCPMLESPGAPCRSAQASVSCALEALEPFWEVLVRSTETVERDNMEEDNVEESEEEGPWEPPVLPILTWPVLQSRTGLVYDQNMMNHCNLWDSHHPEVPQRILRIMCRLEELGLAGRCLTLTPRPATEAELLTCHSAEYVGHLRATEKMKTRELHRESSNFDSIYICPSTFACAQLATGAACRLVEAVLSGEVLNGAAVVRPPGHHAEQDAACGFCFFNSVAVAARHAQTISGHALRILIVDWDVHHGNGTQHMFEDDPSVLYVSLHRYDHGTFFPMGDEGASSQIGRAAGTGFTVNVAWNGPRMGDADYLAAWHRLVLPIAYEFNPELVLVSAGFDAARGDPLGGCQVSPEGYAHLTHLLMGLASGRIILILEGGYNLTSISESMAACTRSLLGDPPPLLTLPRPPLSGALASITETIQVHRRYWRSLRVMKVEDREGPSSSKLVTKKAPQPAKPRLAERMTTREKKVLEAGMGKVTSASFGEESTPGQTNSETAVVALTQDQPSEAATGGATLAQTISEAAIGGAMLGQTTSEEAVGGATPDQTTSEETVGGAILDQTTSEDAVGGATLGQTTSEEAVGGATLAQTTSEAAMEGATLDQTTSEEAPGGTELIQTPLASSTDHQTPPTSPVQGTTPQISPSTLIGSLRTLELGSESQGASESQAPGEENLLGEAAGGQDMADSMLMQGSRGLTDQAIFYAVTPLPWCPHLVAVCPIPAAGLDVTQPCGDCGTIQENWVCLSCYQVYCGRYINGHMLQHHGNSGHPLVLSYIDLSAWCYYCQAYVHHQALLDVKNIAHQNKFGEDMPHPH
In words: HDAC inhibition assay, class II B, fluorogenic peptide RHKK(Ac)AMC. The class given is biochemical.

The next data set concerns the target HDAC4 (Homo sapiens, UniProt P56524). As to the kind of experiment: HDAC inhibition assay, class II A, fluorogenic HDAC Class2a substrate. The conditions noted are these: up to 100 µM.
A further data set addresses HDAC5 (Homo sapiens, UniProt Q9UQL6). The data set is described as above. The note with it: up to 100 µM.
The target of another data set is T3, HDAC7 (Homo sapiens, UniProt Q8WUI4).
T3 sequence (Q8WUI4 1-952): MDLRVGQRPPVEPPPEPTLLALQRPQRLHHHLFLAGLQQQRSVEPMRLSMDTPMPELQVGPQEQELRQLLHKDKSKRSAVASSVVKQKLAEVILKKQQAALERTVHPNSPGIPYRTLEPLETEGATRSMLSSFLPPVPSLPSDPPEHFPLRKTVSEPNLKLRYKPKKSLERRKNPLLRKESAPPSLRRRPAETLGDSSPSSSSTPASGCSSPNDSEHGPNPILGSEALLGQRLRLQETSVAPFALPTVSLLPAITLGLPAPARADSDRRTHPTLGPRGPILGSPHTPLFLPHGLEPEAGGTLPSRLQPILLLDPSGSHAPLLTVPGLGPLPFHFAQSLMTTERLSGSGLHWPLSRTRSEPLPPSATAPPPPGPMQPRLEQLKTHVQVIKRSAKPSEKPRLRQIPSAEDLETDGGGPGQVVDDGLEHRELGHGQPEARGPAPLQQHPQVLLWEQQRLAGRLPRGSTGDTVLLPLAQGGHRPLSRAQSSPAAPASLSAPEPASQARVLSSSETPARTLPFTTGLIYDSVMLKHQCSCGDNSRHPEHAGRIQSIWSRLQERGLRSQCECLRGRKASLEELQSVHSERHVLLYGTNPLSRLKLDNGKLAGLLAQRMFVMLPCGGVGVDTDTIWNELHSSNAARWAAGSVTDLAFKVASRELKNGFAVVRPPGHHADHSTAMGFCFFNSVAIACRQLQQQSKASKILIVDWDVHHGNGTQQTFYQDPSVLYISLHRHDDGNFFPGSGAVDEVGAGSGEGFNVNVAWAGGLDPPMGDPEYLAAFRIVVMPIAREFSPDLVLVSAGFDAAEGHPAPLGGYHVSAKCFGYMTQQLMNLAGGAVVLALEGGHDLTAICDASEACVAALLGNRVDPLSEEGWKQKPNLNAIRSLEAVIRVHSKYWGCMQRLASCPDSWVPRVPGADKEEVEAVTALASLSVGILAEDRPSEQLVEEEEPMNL
Described as above. The note with it: up to 100 µM.

The next data set concerns the target HDAC9 (Homo sapiens, UniProt Q9UKV0). Described as above. The note with it: up to 100 µM.
In the next data set the test system is P-388. The note with it: P-388 cells; cited from earlier work.
The test system of a further data set is HT-29. The conditions noted are these: HT-29 cells; cited from earlier work.
For the next data set, the system named is A549. The note with it: A549 cells; cited from earlier work.

HDAC2, sequence (Q92769 whole entry): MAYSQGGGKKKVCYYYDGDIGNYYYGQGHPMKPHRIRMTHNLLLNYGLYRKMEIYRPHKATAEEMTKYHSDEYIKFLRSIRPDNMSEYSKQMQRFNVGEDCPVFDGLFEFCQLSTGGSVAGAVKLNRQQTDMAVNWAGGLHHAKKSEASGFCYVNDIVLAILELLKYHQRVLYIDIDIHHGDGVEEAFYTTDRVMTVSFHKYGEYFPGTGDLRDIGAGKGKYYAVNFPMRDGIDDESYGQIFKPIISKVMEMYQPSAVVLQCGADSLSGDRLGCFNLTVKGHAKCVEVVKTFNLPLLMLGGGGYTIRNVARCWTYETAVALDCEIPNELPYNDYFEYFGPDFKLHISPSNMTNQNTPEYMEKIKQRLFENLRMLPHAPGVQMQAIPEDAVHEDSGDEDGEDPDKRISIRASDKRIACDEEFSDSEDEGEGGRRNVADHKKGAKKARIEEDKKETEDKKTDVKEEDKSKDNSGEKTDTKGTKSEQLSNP
HDAC9, sequence (Q9UKV0 whole entry): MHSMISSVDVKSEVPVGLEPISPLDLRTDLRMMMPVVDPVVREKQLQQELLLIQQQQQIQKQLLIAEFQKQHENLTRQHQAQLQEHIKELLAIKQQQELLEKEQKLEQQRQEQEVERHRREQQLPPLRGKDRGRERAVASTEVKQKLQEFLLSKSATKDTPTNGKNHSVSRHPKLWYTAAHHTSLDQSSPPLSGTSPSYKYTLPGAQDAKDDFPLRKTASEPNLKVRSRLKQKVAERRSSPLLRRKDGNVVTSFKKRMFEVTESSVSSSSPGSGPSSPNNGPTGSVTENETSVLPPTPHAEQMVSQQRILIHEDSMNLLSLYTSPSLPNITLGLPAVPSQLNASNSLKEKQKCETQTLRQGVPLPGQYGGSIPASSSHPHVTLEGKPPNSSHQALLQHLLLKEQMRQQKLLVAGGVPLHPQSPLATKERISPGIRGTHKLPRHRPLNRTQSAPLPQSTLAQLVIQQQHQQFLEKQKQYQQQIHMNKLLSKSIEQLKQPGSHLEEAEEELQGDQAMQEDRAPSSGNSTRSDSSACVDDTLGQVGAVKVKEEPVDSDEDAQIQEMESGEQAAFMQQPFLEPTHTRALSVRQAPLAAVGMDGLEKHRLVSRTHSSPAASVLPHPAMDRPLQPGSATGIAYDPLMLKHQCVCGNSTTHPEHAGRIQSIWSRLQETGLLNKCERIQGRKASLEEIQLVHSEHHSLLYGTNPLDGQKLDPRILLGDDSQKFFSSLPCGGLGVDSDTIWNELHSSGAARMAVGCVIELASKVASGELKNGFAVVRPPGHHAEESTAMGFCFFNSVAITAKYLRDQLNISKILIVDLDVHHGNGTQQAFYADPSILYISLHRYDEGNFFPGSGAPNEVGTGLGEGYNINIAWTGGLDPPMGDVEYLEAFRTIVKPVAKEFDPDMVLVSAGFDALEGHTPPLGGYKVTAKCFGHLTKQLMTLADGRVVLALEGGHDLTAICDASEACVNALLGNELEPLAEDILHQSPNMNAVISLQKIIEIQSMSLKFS
HDAC4, sequence (P56524 whole entry): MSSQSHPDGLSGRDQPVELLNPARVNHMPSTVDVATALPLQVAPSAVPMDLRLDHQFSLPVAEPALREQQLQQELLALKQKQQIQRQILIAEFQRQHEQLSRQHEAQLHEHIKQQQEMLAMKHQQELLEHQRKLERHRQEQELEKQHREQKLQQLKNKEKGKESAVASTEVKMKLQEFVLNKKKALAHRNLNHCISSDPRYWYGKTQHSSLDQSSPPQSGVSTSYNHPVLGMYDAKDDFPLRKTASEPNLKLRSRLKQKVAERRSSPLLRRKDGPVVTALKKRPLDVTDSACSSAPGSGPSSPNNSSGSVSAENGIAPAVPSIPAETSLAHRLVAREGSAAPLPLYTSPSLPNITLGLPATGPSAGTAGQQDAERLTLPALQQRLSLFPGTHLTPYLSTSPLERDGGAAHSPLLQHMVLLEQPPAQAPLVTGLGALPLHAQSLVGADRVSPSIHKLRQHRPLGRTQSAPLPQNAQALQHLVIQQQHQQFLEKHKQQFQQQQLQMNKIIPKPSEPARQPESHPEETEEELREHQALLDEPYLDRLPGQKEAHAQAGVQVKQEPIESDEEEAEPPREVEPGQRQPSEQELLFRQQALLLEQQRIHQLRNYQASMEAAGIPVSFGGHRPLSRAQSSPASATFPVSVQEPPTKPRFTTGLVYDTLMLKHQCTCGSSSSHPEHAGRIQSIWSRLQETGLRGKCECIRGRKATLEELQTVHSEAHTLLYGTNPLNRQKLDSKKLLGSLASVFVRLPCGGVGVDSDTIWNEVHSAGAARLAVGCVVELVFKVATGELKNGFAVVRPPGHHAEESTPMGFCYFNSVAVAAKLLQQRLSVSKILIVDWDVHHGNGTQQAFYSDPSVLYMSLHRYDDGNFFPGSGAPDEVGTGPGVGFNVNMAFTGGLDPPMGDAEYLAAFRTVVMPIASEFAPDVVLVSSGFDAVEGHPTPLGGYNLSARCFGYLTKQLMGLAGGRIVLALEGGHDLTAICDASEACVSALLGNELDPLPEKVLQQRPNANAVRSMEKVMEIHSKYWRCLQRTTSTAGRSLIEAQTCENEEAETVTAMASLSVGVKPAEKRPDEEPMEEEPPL
HDAC5, sequence (Q9UQL6 whole entry): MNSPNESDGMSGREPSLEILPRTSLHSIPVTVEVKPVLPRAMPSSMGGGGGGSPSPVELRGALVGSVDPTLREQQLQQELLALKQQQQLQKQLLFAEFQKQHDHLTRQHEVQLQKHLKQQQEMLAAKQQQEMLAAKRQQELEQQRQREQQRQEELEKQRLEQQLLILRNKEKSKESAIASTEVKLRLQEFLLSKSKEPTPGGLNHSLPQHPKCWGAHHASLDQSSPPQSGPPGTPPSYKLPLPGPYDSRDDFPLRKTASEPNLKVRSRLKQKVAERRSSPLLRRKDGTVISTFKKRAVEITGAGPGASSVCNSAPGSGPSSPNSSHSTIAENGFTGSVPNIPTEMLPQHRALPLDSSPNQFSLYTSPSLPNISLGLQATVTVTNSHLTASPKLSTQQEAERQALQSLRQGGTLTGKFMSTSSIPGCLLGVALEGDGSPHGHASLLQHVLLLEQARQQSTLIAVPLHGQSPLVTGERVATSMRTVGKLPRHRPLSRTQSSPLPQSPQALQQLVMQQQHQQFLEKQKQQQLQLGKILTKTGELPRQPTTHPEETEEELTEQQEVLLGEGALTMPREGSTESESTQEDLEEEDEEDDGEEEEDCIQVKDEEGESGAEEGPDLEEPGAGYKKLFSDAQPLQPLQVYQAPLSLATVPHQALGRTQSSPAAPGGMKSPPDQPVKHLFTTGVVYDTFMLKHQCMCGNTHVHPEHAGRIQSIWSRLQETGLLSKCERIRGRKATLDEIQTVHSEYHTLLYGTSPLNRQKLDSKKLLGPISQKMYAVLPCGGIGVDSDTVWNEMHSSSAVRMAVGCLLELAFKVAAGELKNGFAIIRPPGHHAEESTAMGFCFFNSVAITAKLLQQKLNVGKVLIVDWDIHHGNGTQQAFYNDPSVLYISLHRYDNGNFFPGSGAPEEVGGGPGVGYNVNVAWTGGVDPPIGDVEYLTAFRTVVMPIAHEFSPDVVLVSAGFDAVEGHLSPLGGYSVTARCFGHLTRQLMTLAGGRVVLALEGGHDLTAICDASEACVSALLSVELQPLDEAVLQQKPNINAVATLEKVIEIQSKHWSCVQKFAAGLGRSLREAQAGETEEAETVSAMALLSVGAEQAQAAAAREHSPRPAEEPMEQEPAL

For the compound `C=C1CC/C=C(\C)CC[C@@H]2C(C(CC3OC3(C)C)OC(C)=O)=CO[C@H](OC)[C@@H]12` (relative stereo) [Compound 2], in the data set on W2 cells, the “optimal concentration for apoptosis induction” value is reported as 11.5 µM and the “cell death in W2 cells” value is listed as “induce measurable cell death in W2”. In addition, the “cell death in D3 cells” value in the data set on D3 cells was “not in D3 cells”.

In the case of `C=C1CC[C@@H]2O[C@@]2(C)CC[C@H](/C(=C/CC2OC2(C)C)CO)[C@H]1C(=O)OC` (relative stereo) [Compound 3], in the data set on W2 cells, the “optimal concentration for apoptosis induction” value is listed as 1.2 µM. Besides, the “cell death in W2 cells” value with W2 cells was “induce measurable cell death in W2”. The “cell death in D3 cells” value in the data set on D3 cells was “not in D3 cells”. In addition, the “inhibition of HDAC1” value against HDAC1 was “did not significantly inhibit”. In addition, on HDAC2, the “inhibition of HDAC2” value is “did not significantly inhibit”. On HDAC3, the “inhibition of HDAC3” value is “did not significantly inhibit”. Further, the “inhibition of HDAC8” value against HDAC8 is given as “did not significantly inhibit”. Also, at HDAC6, the “inhibition of HDAC6” value is on record as “inhibits selectively HDAC6 in high micromolar concentrations”. Besides, the IC50 is 80.9 µM at HDAC6 (10-dose, 3-fold serial dilution, Compound 3 in duplicate starting at 120 µM, read-out: IC50); roughly 80 µM on HDAC6 (as stated in text and legend of Figure 6, read-out: IC50); 80.9 µM at HDAC6 (curve fit printed in the picture of Figure 6, read-out: HDAC 6: EC50). This compound returned an HILLSLOPE on HDAC6 (curve fit) of −1.19. Also, on HDAC4, the “inhibition of HDAC4” value is recorded as “did not significantly inhibit”. Also, at HDAC5, the “inhibition of HDAC5” value is “did not significantly inhibit”. Also, the “inhibition of HDAC7” value against HDAC7 is given as “did not significantly inhibit”. The “inhibition of HDAC9” value on HDAC9 is “did not significantly inhibit”.

For the compound `C=C1CC[C@@H]2O[C@@]2(C)CC[C@H](/C(=C\CC2OC2(C)C)COC(C)=O)[C@H]1C(=O)OC` (stereo partly shown) [xenitacin], the cytotoxicity entry in the data set with P-388, in the data set on HT-29 and in the data set on A549 was “most active compound in its group” in each case.
